“Also recorded” adds a separate entry of the source. Like-named read-outs stand apart in the source and are kept apart here.
Key:
S6Kb = test: Protein kinase profiling, Mobility Shift Assay (Carna Biosciences); assay type: biochemical, human
Method: Protein kinase profiling of compound 14 was executed by Carna Biosciences. Briefly, compound 14 was prepared by dissolving it in dimethyl sulfoxide (DMSO) and then further diluting it in DMSO to a concentration of 25 μM. That stock solution was further diluted 25-fold with kinase assay buffer (20 mM HEPES, 0.01% Triton X-100, 2 mM DTT, pH 7.5) to make the final 1 μM compound 14 solution. Reference compounds for the assay controls were prepared similarly. The off-chip Mobility Shift Assay (MSA) was prepared with 5 μL of 4× compound solution, 5 μL of 4× substrate/ATP/metal solution, and 10 μL of 2× kinase solution, prepared with assay buffer (20 mM HEPES, 0.01% Triton X-100, 2 mM DTT, pH 7.5). The components were mixed and incubated in a polypropylene 384-well microplate for 1 h or 5 h at room temperature, depending on the kinase being tested. […]

[1] = test system: SF-1 target genes in HEK293 cells bearing tetracycline-inducible SF-1; test: RT-qPCR analysis of SF-1 target genes; assay type: cell-based, human; parameters: key to relative NR0B2 expression vs DMSO + TET control / relative StAR expression vs DMSO + TET control: ns = not significant; *p<0.05; ****p<0.0001; details: for relative CYP11A1 expression vs DMSO + TET control / relative NR0B2 expression vs DMSO + TET control / relative StAR expression vs DMSO + TET control: 24 h, HEK293 Tet-inducible SF-1
p38a = target: T1, p38a (Homo sapiens, UniProt Q16539); test: Protein kinase profiling, Mobility Shift Assay (Carna Biosciences); assay type: biochemical; details: read-out: % Inhibition at 1.0 μM 14
T1 construct: purchased Carna Biosciences
Method: (§1) Protein kinase profiling of compound 14 was executed by Carna Biosciences. Briefly, compound 14 was prepared by dissolving it in dimethyl sulfoxide (DMSO) and then further diluting it in DMSO to a concentration of […]. That stock solution was further diluted 25-fold with kinase assay buffer (20 mM HEPES, 0.01% Triton X-100, 2 mM DTT, pH 7.5) to make the final 1 μM compound 14 solution. Reference compounds for the assay controls were prepared similarly. The off-chip Mobility Shift Assay (MSA) was prepared with 5 μL of 4× compound solution, 5 μL of 4× substrate/ATP/metal solution, and 10 μL of 2× kinase solution, prepared with assay buffer (20 mM HEPES, 0.01% Triton X-100, 2 mM DTT, pH 7.5). The components were mixed and incubated in a polypropylene 384-well microplate for 1 h or 5 h at room temperature, depending on the kinase being tested. 60 μL of termination buffer (QuickScout Screening Assist MSA; Carna Biosciences) was added to the well to stop the reactions, and the mixture was applied to a LabChip3000 system (Caliper Life Sciences. The product and substrate peptide peaks were separated and quantitated. The kinase reactions were evaluated by the product ratio, calculated from the peak heights of the product (P) and substrate (S) peptides (P/(P + S)). Product ratio values for the control reaction were set as 0% inhibition, and the readout value of the background (no kinase added) was set as 100% inhibition. The percent inhibition of each test solution was then calculated as reported in Figure A. The phylogenetic tree was generated using KinMap at https://bmcbioinformatics.biomedcentral.com/articles/10.1186/s12859-016-1433-7.

IRAK4 = target: T2, IRAK4 (Homo sapiens, UniProt Q9NWZ3); test: as above; assay type: biochemical; details: read-out: % Inhibition at 1.0 μM 14
T2 construct: purchased Carna Biosciences
Method: as §1

LCK = target: T3, LCK (Homo sapiens, UniProt P06239); test: as above; assay type: biochemical; details: read-out: % Inhibition at 1.0 μM 14
T3 construct: purchased Carna Biosciences
Method: as §1

CSK = target: T4, CSK (Homo sapiens, UniProt P41240); test: as above; assay type: biochemical; details: read-out: % Inhibition at 1.0 μM 14
T4 construct: purchased Carna Biosciences
Method: as §1

AurA = target: T5, AurA (Homo sapiens, UniProt O14965); test: as above; assay type: biochemical; details: read-out: % Inhibition at 1.0 μM 14
T5 construct: purchased Carna Biosciences
Method: as §1

MER = target: T6, MER (Homo sapiens, UniProt Q12866); test: as above; assay type: biochemical; details: read-out: % Inhibition at 1.0 μM 14
T6 construct: purchased Carna Biosciences
Method: as §1

ITK = target: T7, ITK (Homo sapiens, UniProt Q08881); test: as above; assay type: biochemical; details: read-out: % Inhibition at 1.0 μM 14
T7 construct: purchased Carna Biosciences
Method: as §1

ABL = target: T8, ABL (Homo sapiens, UniProt P00519); test: as above; assay type: biochemical; details: read-out: % Inhibition at 1.0 μM 14
T8 construct: purchased Carna Biosciences
Method: as §1

IKKb = target: T9, IKKb (Homo sapiens, UniProt O14920); test: as above; assay type: biochemical; details: read-out: % Inhibition at 1.0 μM 14
T9 construct: purchased Carna Biosciences
Method: as §1

EGFR = target: T10, EGFR (Homo sapiens, UniProt P00533); test: as above; assay type: biochemical; details: read-out: % Inhibition at 1.0 μM 14
T10 construct: purchased Carna Biosciences
Method: as §1

JAK3 = target: T11, JAK3 (Homo sapiens, UniProt P52333); test: as above; assay type: biochemical; details: read-out: % Inhibition at 1.0 μM 14
T11 construct: purchased Carna Biosciences
Method: as §1

MET = target: T12, MET (Homo sapiens, UniProt P08581); test: as above; assay type: biochemical; details: read-out: % Inhibition at 1.0 μM 14
T12 construct: purchased Carna Biosciences
Method: as §1

IGF1R = target: T13, IGF1R (Homo sapiens, UniProt P08069); test: as above; assay type: biochemical; details: read-out: % Inhibition at 1.0 μM 14
T13 construct: purchased Carna Biosciences
Method: as §1

PKCa = target: T14, PKCa (Homo sapiens, UniProt P17252); test: as above; assay type: biochemical; details: read-out: % Inhibition at 1.0 μM 14
T14 construct: purchased Carna Biosciences
Method: as §1

[2] = test system: purified recombinant human IPMK kinase domain; test: IPMK IC50 determination, Kinase-Glo assay; assay type: biochemical
Description: (§2) These assay conditions were optimized with respect to reaction time, IPMK enzyme concentration, and IP3 concentration to determine the IC50 values for these ATP-competitive compounds.

[3] = target: T15, purified recombinant human IPMK kinase domain (Homo sapiens, UniProt Q8NFU5); test: IPMK IC50 determination, Kinase-Glo assay; assay type: biochemical
T15 sequence (Q8NFU5 with tags, fused parts or gaps): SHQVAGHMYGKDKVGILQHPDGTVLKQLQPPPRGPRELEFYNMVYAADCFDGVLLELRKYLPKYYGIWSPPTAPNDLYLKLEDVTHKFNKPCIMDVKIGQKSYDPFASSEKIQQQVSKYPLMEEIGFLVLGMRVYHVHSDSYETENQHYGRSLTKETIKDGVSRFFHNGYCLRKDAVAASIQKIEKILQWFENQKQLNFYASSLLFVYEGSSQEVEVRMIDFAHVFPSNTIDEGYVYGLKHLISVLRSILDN
Description: as §2

T8 sequence (P00519 whole entry): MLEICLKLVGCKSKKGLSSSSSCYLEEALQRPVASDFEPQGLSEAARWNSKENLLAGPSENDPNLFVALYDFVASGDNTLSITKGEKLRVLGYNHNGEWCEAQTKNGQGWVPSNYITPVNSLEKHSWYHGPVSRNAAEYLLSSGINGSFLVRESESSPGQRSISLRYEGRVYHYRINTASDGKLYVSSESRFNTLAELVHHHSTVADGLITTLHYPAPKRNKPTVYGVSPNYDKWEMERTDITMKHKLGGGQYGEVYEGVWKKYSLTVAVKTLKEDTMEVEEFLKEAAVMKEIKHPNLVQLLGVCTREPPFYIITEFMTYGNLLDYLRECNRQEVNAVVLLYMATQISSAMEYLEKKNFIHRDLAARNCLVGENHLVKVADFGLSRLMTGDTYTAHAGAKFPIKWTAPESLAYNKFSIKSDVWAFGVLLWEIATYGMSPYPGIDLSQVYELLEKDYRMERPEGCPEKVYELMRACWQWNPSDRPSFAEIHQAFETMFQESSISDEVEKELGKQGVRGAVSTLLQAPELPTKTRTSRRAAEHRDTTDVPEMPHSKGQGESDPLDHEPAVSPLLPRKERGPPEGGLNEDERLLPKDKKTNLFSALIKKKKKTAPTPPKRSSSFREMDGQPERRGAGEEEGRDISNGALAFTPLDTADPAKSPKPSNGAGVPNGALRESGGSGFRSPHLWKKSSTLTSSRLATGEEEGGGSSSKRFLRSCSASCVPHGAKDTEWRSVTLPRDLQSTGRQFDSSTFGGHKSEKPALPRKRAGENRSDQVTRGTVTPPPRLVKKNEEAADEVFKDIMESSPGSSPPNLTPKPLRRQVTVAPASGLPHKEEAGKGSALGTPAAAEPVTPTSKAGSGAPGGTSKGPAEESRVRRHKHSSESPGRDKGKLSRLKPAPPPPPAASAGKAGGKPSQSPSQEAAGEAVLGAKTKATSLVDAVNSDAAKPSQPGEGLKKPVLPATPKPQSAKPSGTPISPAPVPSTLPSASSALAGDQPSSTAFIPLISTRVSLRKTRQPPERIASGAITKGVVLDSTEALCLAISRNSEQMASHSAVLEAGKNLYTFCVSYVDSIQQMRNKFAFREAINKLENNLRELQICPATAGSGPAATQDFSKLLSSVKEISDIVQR
T9 sequence (O14920 whole entry): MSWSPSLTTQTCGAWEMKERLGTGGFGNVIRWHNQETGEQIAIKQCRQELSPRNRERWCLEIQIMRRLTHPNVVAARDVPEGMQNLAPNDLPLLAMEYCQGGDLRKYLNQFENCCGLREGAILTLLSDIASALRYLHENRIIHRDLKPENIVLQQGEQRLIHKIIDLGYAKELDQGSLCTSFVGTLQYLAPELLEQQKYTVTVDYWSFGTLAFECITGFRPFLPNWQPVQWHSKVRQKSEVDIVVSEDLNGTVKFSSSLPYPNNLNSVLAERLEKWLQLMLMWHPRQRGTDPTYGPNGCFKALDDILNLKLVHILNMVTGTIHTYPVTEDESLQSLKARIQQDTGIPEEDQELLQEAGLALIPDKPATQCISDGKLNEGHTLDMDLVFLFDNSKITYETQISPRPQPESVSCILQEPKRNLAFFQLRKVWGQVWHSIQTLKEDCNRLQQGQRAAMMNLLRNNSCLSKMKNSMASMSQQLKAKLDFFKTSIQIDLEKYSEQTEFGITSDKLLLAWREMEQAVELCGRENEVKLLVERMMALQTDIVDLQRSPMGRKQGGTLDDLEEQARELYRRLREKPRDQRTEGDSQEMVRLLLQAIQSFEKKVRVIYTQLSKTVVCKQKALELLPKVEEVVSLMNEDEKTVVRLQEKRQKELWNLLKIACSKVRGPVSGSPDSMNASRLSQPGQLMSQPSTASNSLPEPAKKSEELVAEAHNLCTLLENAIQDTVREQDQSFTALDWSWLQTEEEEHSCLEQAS
T12 sequence (P08581 25-1390): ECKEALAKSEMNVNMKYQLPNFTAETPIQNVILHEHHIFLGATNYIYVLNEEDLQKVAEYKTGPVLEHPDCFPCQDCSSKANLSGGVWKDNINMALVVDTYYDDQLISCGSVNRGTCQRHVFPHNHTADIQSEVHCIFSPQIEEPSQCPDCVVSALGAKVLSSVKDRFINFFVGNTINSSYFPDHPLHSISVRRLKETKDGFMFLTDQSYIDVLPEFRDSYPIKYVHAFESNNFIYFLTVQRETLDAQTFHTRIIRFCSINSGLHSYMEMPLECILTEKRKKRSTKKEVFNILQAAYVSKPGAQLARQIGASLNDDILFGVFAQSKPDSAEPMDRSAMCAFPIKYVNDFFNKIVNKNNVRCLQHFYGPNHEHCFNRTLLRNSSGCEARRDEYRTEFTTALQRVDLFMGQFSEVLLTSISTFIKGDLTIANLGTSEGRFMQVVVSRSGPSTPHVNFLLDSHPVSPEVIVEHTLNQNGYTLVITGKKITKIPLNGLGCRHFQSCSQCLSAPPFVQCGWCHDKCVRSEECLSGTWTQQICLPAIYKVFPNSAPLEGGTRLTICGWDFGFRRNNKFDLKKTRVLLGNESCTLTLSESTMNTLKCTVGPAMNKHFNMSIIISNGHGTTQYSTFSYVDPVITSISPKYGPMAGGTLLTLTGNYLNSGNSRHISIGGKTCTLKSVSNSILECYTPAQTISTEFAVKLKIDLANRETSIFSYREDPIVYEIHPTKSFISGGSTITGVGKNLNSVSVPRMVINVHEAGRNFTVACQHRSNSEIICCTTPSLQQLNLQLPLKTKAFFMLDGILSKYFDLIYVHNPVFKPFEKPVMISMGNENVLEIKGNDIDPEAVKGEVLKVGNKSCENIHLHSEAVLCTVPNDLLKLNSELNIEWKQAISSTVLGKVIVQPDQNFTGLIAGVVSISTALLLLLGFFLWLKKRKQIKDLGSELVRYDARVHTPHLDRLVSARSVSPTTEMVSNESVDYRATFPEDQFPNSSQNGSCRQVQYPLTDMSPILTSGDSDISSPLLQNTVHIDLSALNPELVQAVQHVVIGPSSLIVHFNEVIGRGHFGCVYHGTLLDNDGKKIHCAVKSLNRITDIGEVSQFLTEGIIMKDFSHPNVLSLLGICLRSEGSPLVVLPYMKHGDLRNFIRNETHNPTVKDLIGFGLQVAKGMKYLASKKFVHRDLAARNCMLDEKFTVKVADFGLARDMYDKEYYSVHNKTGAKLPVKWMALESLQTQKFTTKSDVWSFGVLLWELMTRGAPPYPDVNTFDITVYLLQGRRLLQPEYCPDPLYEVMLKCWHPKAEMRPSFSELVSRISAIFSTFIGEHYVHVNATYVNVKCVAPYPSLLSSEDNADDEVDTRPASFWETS
T5 sequence (O14965 whole entry): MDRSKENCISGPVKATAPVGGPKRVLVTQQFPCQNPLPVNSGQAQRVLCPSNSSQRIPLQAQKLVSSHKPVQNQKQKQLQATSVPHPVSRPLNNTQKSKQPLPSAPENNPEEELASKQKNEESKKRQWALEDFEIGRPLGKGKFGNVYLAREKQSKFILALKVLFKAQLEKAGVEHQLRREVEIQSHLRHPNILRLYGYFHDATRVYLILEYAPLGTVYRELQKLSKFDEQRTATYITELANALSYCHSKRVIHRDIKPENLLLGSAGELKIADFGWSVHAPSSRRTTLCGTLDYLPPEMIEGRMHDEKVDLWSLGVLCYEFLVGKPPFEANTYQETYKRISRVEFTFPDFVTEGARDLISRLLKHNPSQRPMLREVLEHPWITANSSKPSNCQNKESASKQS
T3 sequence (P06239 whole entry): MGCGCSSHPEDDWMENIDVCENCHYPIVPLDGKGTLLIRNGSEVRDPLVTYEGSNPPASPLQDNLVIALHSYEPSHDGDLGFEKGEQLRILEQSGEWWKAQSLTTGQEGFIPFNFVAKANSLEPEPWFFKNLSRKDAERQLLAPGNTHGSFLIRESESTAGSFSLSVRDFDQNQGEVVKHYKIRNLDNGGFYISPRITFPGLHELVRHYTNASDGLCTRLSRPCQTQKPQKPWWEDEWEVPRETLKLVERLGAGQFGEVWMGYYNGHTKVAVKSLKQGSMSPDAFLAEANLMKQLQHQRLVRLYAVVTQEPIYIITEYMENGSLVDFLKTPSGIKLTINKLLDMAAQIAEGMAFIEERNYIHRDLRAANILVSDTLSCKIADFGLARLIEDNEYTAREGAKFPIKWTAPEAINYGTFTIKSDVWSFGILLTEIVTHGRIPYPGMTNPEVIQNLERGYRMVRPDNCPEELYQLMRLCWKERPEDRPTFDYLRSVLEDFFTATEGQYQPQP

SMILES: c1cc(-c2onc3ccc(-c4nnn[nH]4)cc23)cc(C2CCN(C3CCC3)CC2)c1 [Compound 14, 3-(3-(1-Cyclobutylpiperidin-4-yl)phenyl)-5-(1H-tetrazol-5-yl)benzo[c]isoxazole]
- % Inhibition at 1.0 μM 14 (S6Kb): 9.4%
- relative CYP11A1 expression vs DMSO + TET control ([1]; 10 μM): * (*p<0.05)
- relative NR0B2 expression vs DMSO + TET control ([1]; 10 μM): ns
- relative StAR expression vs DMSO + TET control ([1]; 10 μM): ns
- relative CYP11A1 expression vs DMSO + TET control ([1]; 30 μM): * (*p<0.05)
- relative NR0B2 expression vs DMSO + TET control ([1]; 30 μM): * (*p<0.05)
- relative StAR expression vs DMSO + TET control ([1]; 30 μM): * (*p<0.05)
- relative CYP11A1 expression vs DMSO + TET control ([1]; 50 μM): **** (****p<0.0001)
- relative NR0B2 expression vs DMSO + TET control ([1]; 50 μM): **** (****p<0.0001)
- relative StAR expression vs DMSO + TET control ([1]; 50 μM): **** (****p<0.0001)
- regulation of nuclear receptor SF-1 target genes ([1]; HEK293 cells with Tet-inducible SF-1, 24 h): can regulate these target genes; also recorded: able to regulate nuclear receptor SF-1 target genes; also recorded: did detect changes
- inhibition at 1 µM (p38a): 2.6%
- inhibition at 1 µM (IRAK4): 1.3%
- inhibition at 1 µM (LCK): 32.7%
- inhibition at 1 µM (CSK): 5.5%
- inhibition at 1 µM (AurA): 24.7%
- inhibition at 1 µM (MER): 72%
- inhibition at 1 µM (ITK): 5.7%
- inhibition at 1 µM (ABL): 27.5%
- inhibition at 1 µM (IKKb): 0.4%
- inhibition at 1 µM (EGFR): 3.4%
- inhibition at 1 µM (JAK3): 72.8%
- inhibition at 1 µM (MET): 34.7%
- inhibition at 1 µM (IGF1R): 1.7%
- inhibition at 1 µM (PKCa): 59.6%
- concentration of maximum IPMK inhibition [2]: 100 nM
- IC50 ([3]; Kinase-Glo assay, 12.5 μM Ins(1,4,5)P3, 10 μM ATP, read-out: IC50 toward recombinant human IPMK): 32 ± 2.4 nM
- IC50 ([3]; supplementary csv, read-out: IPMK IC50): 31.6 ± 2.4 nM

From PMC12362615, “Design, Synthesis, and Cellular Characterization of a New Class of IPMK Kinase Inhibitors” (Journal of Medicinal Chemistry, 2025)
